According to patent publication US20170107235A1, “PYRROLOBENZ[…] FOR TREATING LYMPHOMA” (ADC PRODUCTS (UK) LIMITED, priority 2014, published 2017):
“And” between values parts separate entries of the source, which are not always exact repeats. Identical values can stand only once.

System: dogs with spontaneous malignancies (lymphoma)
Test: Phase Ia clinical trial of SG2000 in dogs with spontaneous malignancies (lymphoma patients)
Assay type: in vivo
Set-up: key to Response during first cycle / Response to SG2000: Complete response (CR) is defined as the disappearance of all target lesions; Partial response (PR) is defined as a >30% decrease in the sum of the longest dimensions of the target lesions; Progressive disease (PD) is defined as a >20% increase in the sum of the longest dimensions of the target lesions; Stable Disease (SD) is defined as neither sufficient shrinkage to qualify for PR nor sufficient increase to qualify for PD
Protocol: A Phase Ia clinical trial in dogs with spontaneous malignancies was undertaken at the Royal Veterinary College, University of London, UK.
was supplied in 5 mL vials, wherein each mL contains 10 micrograms of SG2000 and 47.1 mg of dimethylacetamide. For doses below 100 microgram, the required volume of SG2000 was diluted to 10 ml with normal saline (0.9% sodium chloride) prior to administration. If the total dose exceeds 100 micrograms, the supplied solution was used without prior dilution with normal saline.
SG2000 was administered as a slow intravenous infusion into a peripheral vein. The drug was be administered slowly IV over 20 minutes via a peripheral vein catheter. If the drug has been diluted to a total volume of 10 ml, this will mean injecting 0.5 ml per minute.
The following concomitant/supportive medications permitted during the trial were:
The following definitions are used in reporting the results:
Complete response (CR) is defined as the disappearance of all target lesions.
Partial response (PR) is defined as a >30% decrease in the sum of the longest dimensions of the target lesions, taking as a reference the baseline sum longest dimensions.
Progressive disease (PD) is defined as a >20% increase in the sum of the longest dimensions of the target lesions, taking as a reference the smallest sum of the longest dimensions recorded since the treatment started, or the appearance of 1 or more new lesions.
Stable Disease (SD) is defined as neither sufficient shrinkage to qualify for PR nor sufficient increase to qualify for PD, taking as a reference the smallest sum of the longest dimensions since the treatment started.
Objective Response Rate (ORR) is defined as the number of patients with confirmed complete or partial responses, expressed as a percentage of all patients treated with SG2000
Time to Progression (TTP) is defined as the period of time from first date of treatment to the date that the patient is withdrawn because of clinical or imaging-based progressive disease, or death from any cause (including euthanasia).
“Duration of Response” is defined for patients with an objective response only.
This patient, diagnosed with multicentric B-cell high grade lymphoma, had been previously treated with 5 protocols. This patient was treated for a first cycle (3 weeks) with IV 1.75 μg/kg SG2000 solution with a single weekly dose. […] The second cycle of treatment followed with IV 2.00 μg/kg SG2000 with a single weekly dose. The third cycle of weekly dosing was begun after a single week break, with doses of 2.00 μg/kg SG2000, 1.75 μg/kg SG2000 and 2.00 μg/kg SG2000.
Patients 2 to 9 were treated as follows, with the stated amount of SG2000 (μg/kg), with a 3 weekly cycle of weekly treatments, and a single break week between cycles.
Patients 2, 4-5 were diagnosed with multicentric B-cell high grade lymphoma, Patients 3, 8 and 9 were diagnosed with multicentric B-cell intermediate grade lymphoma and Patient 6 was diagnosed with multicentric T-cell high grade lymphoma. Patient 7 was diagnosed with multicentric and mediastinal high grade lymphoma, which was suspected to be to be T-cell lymphoma.

[1] = Patient 1, dog, multicentric B-cell high grade lymphoma
[2] = Patient 1, dog, multicentric B-cell high grade lymphoma, IV 1.75-2.00 μg/kg weekly, 3 cycles
[3] = dogs with multicentric lymphoma, Patients 2 to 9, IV 1.5-2 μg/kg weekly

C=C1C[C@H]2C=Nc3cc(OCCCOc4cc5c(cc4OC)C(=O)N4CC(=C)C[C@H]4C=N5)c(OC)cc3C(=O)N2C1 [SG2000]
Progression free interval with treatment [1]: 111 days
Survival time since the start of the SG2000 trial [1]: 126 days
Patient response at the end of the planned 3 cycles [2]: PD (Progressive disease (PD) is defined as a >20% increase in the sum of the longest dimensions of the target lesions)
Toxicity at the end of the planned 3 cycles [2]: grade 4 anaemia
Disease course in the planned three week break after first cycle (Patient 1, dog, multicentric B-cell high grade lymphoma, after first cycle IV 1.75 μg/kg weekly): the disease progressed
Response during first cycle (Patient 1, dog, multicentric B-cell high grade lymphoma, first cycle (3 weeks) IV 1.75 μg/kg single weekly dose): SD
Survival time from diagnosis (Patient 1, dog, multicentric B-cell high grade lymphoma, previously treated with 5 protocols): 408 days
Progression free interval [3]: 10 d (2×) and 56 d and 54 d and 7 d and 158 d and 43 d
Survival time from SG2000 start [3]: 24 days and 74 days and 16 days and 95 days and 8 days and 195 days and 49 days
Survival time from diagnosis [3]: 31 days and 186 days and 252 days and 336 days and 141 days and 811 days and 138 days
Response to SG2000 (dogs with multicentric lymphoma, Patients 2 to 9, IV 1.5-2 μg/kg weekly, 3 weekly cycles): PD (Progressive disease (PD) is defined as a >20% increase in the sum of the longest dimensions of the target lesions) (3×) and SD (2×) and PR (Partial response (PR) is defined as a >30% decrease in the sum of the longest dimensions of the target lesions) (2×) and CR
